Consider one molecule from article PMC4961418, “A Selective Irreversible Inhibitor of Furin Does Not Prevent Pseudomonas Aeruginosa Exotoxin A-Induced Airway Epithelial Cytotoxicity” (PLoS ONE, 2016).

Side chains are listed from the residue outwards. Peptide text beside a SMILES is read from it. * marks the point of attachment. Biotin = O=C1N[C@H]2[C@H](CS[C@H]2CCCCC(=O)*)N1; X1 = N=C(N)NCCCC(N*)P(=O)(Oc1ccccc1)Oc1ccccc1; Palmitoyl = CCCCCCCCCCCCCCCC(=O)*; Ahx = NCCCCCC(=O)O

For one assay, the system named is trypsin. Description: Fluorogenic protease activity assay, trypsin. The assay is classed as biochemical, human. Conditions: 10 μM inhibitor, Z-Gly-Gly-Arg-NH2Mec 50 μM, N = 3. From the text: (§1) Recombinant human enzymes were sourced as follows: furin and matriptase (R&D Systems); prostasin (Sino Biological); trypsin and chymotrypsin (Sigma-Aldrich); factor Xa and neutrophil elastase (Merck Millipore) and proteinase-3 and cathepsin G (Elastin Products, Missouri). Fluorogenic substrates were sourced as follows: p-Glu-Arg-Thr-Lys-Arg-NH2Mec and Boc-Gln-Ala-Arg-NH2Mec (R&D Systems); Boc-Ile-Glu-Gly-Arg-NH2Mec (Bachem); Z-Gly-Gly-Arg-NH2Mec, MeOSuc-Ala-Ala-Pro-Val-NH2Mec and Suc-Ala-Ala-Pro-Phe-NH2Mec (Sigma-Aldrich). All chemicals and reagents for the synthesis of QUB-F1 were supplied by Sigma-Aldrich unless otherwise indicated. Fmoc-Lys(Boc)-SASRIN resin was sourced from Bachem. Fmoc-protected amino acids and HCTU were supplied by Merck Millipore.
(§2) Recombinant protease activities were assessed using the cognate fluorogenic substrates (final concentration 50 μM) as follows: trypsin (Z-Gly-Gly-Arg-NH2Mec), prostasin and matriptase (Boc-Gln-Ala-Arg-NH2Mec), factor Xa (Boc-Ile-Glu-Gly-Arg-NH2Mec), neutrophil elastase and proteinase 3 (MeO-Suc-Ala-Ala-Pro-Val-NH2Mec), chymotrypsin and cathepsin G (Suc-Ala-Ala-Pro-Phe-NH2Mec). The rate of substrate hydrolysis in the presence or absence of furin inhibitors was assessed by continuous recording at λex 360 nm, λem 480 nm, over a period of 60 minutes using a FLUOstar Optima microplate reader (BMG Labtech). […]

The target of a further assay is T1, prostasin (Homo sapiens, UniProt Q16651).
T1 construct: purchased Sino Biological
T1 sequence (Q16651 33-343): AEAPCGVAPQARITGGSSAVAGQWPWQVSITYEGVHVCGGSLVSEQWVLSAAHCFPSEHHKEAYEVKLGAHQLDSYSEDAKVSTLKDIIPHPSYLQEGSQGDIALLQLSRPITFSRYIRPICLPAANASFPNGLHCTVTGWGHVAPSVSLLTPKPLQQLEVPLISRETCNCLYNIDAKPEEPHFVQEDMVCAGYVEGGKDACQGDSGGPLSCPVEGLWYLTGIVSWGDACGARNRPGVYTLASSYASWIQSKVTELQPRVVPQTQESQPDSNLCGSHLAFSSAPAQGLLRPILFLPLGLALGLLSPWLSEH
The experiment in a line: Fluorogenic protease activity assay, prostasin. The conditions noted are these: 10 μM inhibitor, Boc-Gln-Ala-Arg-NH2Mec 50 μM, N = 3. The class given is biochemical.
Source text: as §1, §2

The target of another assay is T2, matriptase (Homo sapiens, UniProt Q9Y5Y6).
T2 construct: purchased R&D Systems
T2 sequence (Q9Y5Y6 1-855): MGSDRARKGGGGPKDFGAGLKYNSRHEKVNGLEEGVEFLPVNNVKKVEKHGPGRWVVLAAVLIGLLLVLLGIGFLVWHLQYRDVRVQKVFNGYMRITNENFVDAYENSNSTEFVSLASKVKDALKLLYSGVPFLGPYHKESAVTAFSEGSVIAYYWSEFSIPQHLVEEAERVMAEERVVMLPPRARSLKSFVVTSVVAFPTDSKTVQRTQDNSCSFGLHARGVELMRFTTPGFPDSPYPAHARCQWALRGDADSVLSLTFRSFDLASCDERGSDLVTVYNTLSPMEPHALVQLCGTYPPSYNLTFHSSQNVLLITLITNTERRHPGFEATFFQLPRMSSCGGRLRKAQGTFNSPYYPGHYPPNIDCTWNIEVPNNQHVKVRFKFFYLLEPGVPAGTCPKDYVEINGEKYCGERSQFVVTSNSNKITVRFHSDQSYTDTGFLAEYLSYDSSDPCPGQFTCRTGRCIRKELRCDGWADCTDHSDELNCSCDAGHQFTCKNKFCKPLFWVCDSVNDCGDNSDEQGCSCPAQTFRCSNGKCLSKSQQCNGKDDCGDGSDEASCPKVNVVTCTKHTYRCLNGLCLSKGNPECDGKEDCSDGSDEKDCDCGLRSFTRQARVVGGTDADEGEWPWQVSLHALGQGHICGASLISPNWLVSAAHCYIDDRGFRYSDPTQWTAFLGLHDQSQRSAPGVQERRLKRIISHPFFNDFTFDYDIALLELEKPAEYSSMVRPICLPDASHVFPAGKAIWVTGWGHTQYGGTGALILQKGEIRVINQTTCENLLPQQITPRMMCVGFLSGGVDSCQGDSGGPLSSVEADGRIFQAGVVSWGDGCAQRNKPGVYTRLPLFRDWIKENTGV
Description: Fluorogenic protease activity assay, matriptase. The class given is biochemical. The conditions noted are these: 10 μM inhibitor, Boc-Gln-Ala-Arg-NH2Mec 50 μM, N = 3.
Source text: as §1, §2

A further assay concerns the target T3, factor Xa (Homo sapiens, UniProt P00742).
T3 construct: factor Xa and neutrophil elastase (Merck Millipore); purchased Merck Millipore
The experiment in a line: Fluorogenic protease activity assay, factor Xa. The assay is classed as biochemical. Conditions: 10 μM inhibitor, Boc-Ile-Glu-Gly-Arg-NH2Mec 50 μM, N = 3.
Source text: as §1, §2

The target of the next assay is T4, neutrophil elastase (Homo sapiens, UniProt P08246).
T4 construct: purchased Merck Millipore
T4 sequence (P08246 30-267): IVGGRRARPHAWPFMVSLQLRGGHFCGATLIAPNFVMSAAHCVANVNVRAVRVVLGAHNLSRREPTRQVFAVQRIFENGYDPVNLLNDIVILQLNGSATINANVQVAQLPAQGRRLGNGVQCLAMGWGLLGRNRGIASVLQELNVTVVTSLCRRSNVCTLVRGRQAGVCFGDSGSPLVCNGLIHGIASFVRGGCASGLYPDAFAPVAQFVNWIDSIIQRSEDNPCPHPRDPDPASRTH
Description: Fluorogenic protease activity assay, neutrophil elastase. The conditions noted are these: 10 μM inhibitor, MeO-Suc-Ala-Ala-Pro-Val-NH2Mec 50 μM, N = 3. The assay is classed as biochemical.
Source text: as §1, §2

In a further assay the target is T5, proteinase 3 (Homo sapiens, UniProt P24158).
T5 construct: purchased Elastin Products, Missouri
T5 sequence (P24158 28-256): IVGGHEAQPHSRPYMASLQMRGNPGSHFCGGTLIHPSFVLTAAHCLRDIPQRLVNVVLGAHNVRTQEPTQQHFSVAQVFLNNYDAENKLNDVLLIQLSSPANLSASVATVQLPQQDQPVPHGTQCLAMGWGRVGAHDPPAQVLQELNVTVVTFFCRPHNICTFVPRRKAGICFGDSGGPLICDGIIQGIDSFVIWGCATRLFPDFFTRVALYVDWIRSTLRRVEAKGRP
The experiment in a line: Fluorogenic protease activity assay, proteinase 3. The assay is classed as biochemical. The conditions noted are these: 10 μM inhibitor, MeO-Suc-Ala-Ala-Pro-Val-NH2Mec 50 μM, N = 3.
Source text: as §1, §2

In the next assay the target is T6, cathepsin G (Homo sapiens, UniProt P08311).
T6 construct: purchased Elastin Products, Missouri
T6 sequence (P08311 21-255): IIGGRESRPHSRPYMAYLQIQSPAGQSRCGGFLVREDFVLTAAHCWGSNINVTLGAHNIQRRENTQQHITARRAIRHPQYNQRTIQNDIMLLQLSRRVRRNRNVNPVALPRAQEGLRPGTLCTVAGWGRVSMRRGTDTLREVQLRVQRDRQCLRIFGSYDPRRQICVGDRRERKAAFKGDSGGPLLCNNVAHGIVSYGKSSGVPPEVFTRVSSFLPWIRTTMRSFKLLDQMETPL
The experiment in a line: Fluorogenic protease activity assay, cathepsin G. The assay is classed as biochemical. The conditions noted are these: 10 μM inhibitor, Suc-Ala-Ala-Pro-Phe-NH2Mec 50 μM, N = 3.
Source text: as §1, §2

For another assay, the system named is chymotrypsin. The experiment in a line: Fluorogenic protease activity assay, chymotrypsin. The class given is biochemical, human. Conditions: 10 μM inhibitor, Suc-Ala-Ala-Pro-Phe-NH2Mec 50 μM, N = 3.
Source text: as §1, §2

T3 sequence (P00742 235-488 limits assumed): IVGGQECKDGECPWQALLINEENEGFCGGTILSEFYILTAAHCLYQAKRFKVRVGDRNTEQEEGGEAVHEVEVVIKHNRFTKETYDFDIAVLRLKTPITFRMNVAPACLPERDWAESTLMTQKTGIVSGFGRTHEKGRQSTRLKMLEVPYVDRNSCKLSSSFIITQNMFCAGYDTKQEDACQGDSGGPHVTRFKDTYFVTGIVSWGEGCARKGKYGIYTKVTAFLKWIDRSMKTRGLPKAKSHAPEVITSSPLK
T3 sequence (P00742 41-179 partner limits assumed): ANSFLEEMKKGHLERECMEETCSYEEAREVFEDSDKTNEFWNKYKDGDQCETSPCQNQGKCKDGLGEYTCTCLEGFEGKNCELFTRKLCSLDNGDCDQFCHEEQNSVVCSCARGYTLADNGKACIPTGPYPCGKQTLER

Regarding `CCCCCCCCCCCCCCCC(=O)N[C@@H](CCCCNC(=O)CCCCCNC(=O)CCCC[C@@H]1SC[C@@H]2NC(=O)N[C@@H]21)C(=O)N[C@@H](CCCNC(=N)N)C(=O)N[C@H](C(=O)N[C@@H](CCCCN)C(=O)NC(CCCNC(=N)N)P(=O)(Oc1ccccc1)Oc1ccccc1)C(C)C` (stereo partly drawn) [QUB-F1, N^α-Pal-N^ω-(Biotinyl-Ahx)-Lys-RVKR^P(OPh)2] (Palmitoyl-K([Ahx-Biotin])RVK-X1), the inhibition of trypsin entry in the assay on trypsin is given as “did not”. In addition, the inhibition of prostasin result on prostasin is listed as “did not”. For the same molecule, on matriptase, the inhibition of matriptase result is “did not”. Also, on factor Xa, the “inhibition of factor Xa” value is listed as “did not”. For the same molecule, the “inhibition of neutrophil elastase” value on neutrophil elastase is recorded as “Neither compound was found to inhibit”. In addition, on proteinase 3, the “inhibition of proteinase 3” value is “Neither compound was found to inhibit”. Further, the “inhibition of cathepsin G” value against cathepsin G is reported as “Neither compound was found to inhibit”. The inhibition of chymotrypsin result in the assay with chymotrypsin is on record as “Neither compound was found to inhibit”.
